Laboratory results from patent publication US20250359578A1, “WATER-SOLUBLE CREATINE AGGLOMERATE” (Alzchem Trostberg GmbH, priority 2022, published 2025).

Tests used:
Type in all cases: physicochemical
[1] = Determination of pourability (drainage funnel); set-up: key: Solid trickles through the 2.5 mm outlet: Grade 1; Solid trickles through the 5 mm outlet: Grade 2; Solid trickles through the 8 mm outlet: Grade 3; Solid trickles through the 12 mm outlet: Grade 4; Solid trickles through the 18 mm outlet: Grade 5; Solid does not trickle through the 18 mm outlet: Grade 6; conditions: grade by outlet diameter of test funnel, 50 mL sample; lower grade is better
Description: 2. Determination of Pourability (Drainage Funnel):
The test equipment consists of five test funnels with the same diameter (36 mm inner diameter) and 28 degree tilt, but with different outlet diameters (2.5 mm; 5 mm; 8 mm; 12 mm and 18 mm). A 50 mL sample of creatine or the creatine formulation is filled into the test funnel, whereby the outlet is closed from below so that no material can drain during filling. In the next step, the outlet is opened completely—without shaking the test funnel—so that the entire outlet cross-section is released. The evaluation parameter is the diameter at which the solid trickles through independently and without external influence.
The lower the grade, the better the pourability.

[2] = Determination of flowability (Evolution Powder Tester); conditions: compression, no time consolidation
Description: 4. Determination of Flowability
Flowability of solids (powders and agglomerates) is determined using the “Evolution Powder Tester” measuring device from PS Prozesstechnik GmbH, Basel, Switzerland. Flowability is shown in the dimensionless number [ffc]. The method used is determination by compression on the Evolution Powder Tester; no time consolidation is carried out. For this purpose, 25 mL of the solid is weighed into the measuring cell and placed in the measuring device. After starting the measurement, the solid is compressed in the measuring cell at a stamping speed of 15 mm per minute and a force (F1) of 10000 kPa for 30 seconds. The resulting solid compact in the measuring cell is then loaded again with a stamping speed of 10 mm per minute and slowly increasing force (F2) until the solid compact breaks. The ratio of the force (F1) for compression and the force (F2) for breaking the compact corresponds to the flowability [ffc] and is calculated using the formula: […]
The following assessment applies to the classification of flowability [ffc]: […]

[3] = Determination of the grain size distribution (laser diffraction, HELOS/KR)
Description: 7. Determination of the Grain Size Distribution
The grain size distribution was determined using a laser diffraction method on a “HELOS/KR” grain size measuring device from Sympatec GmbH. The R6 measuring aperture was used, which covers a measuring range of 0.5 to 1750 μm. The sample was fed via a vibrating chute with 60% power and a dispersion pressure of 2.5 bar. The software version “WINDOX 5.1.2.0, LD” was used for evaluation. Setting the trigger conditions: Time base 100.00 ms, start at c.opt>=1.0%, validity c.opt from 1.0% to 14.0%, stop at 5.000s c.opt<=0.9% or 10.000s real time. The x10, x50 and x90 values were used to assess the agglomerate quality, represented as the distribution sum Q3 in a histogram of the grain size distribution.

[4] = Determination of dustiness (DustView II); conditions: 30.0 g sample, maximum attenuation plus value at 30 seconds
Description: 5. Determination of Dustiness
The dustiness of solids (powders and agglomerates) is represented in the dimensionless dust number. The dust number is determined using the DustView II dust measuring device from Palas GmbH, Karlsruhe.
Thereby, 30.0 g of a sample is weighed and placed in the funnel on the flap. The measurement is then started by pressing a button on the control panel. The flap opens and the solid falls freely into the dust box. The impact of the solid material whirls up the dust particles. As a result, the light beam emitted by the laser is attenuated by the swirling dust and the attenuated light beam is detected at the receiver. The degree of attenuation (transmission signal) compared to the light beam emitted by the light source is a measure of the dustiness of the solid. A value of 100 means the maximum possible attenuation of the light beam and a value of 0 means no attenuation of the light beam. To determine the dust number, the value of the maximum attenuation of the light beam is added to the value at 30 seconds after the start of the measurement and output as the dust number.
The lower the dust number, the less dusty the solid is.

[5] = Determination of the angle of repose (DIN ISO 4324)
Description: 3. Determination of the Angle of Repose
The angle of repose was determined according to the method DIN ISO 4324 (1983-12) Surfactants; powders and granules; determination of the angle of repose. The smaller the angle of repose, the better the flow properties.

[6] = Determination of the bulk density (DIN ISO 697)
Description: 6. Determination of the Bulk Density
The bulk density was determined according to the method DIN ISO 697 (1984-01) surfactants; detergents; determination of bulk density; method by measuring the mass of a given volume.
The higher the bulk density, the more advantageous the handling.

[7] = Determination of the dissolution rate (mass of filter residue); conditions: 1.75 g in 175 ml water at 23° C., stirred 10 seconds
Description: The moist filter residue is dried. The mass of the filter residue serves as a measure of the dissolution rate; the lower the mass, the better the dissolution rate.

CN(CC(=O)O)C(=N)N.O [Example 6, creatine monohydrate]
Pourability [1]: 6
Flowability [ffc] [2]: 1.9
Grain size distribution ×10 value ([3]; distribution sum Q3): 1.32 μm
Grain size distribution ×90 value ([3]; distribution sum Q3): 45.8 μm
Grain size distribution ×50 value ([3]; distribution sum Q3, monohydrate): 13.0 μm
Dustiness [dust number] [4]: 23.2
Angle of repose [5]: 54 °
Bulk density [6]: 270 g/L

CN(CC(=O)O)C(=N)N.O [creatine monohydrate]
Grain size distribution ×50 value ([3]; distribution sum Q3, listed as non-ground creatine monohydrate, monohydrate): 171 μm
Undissolved portion to 1.75 g [7]: 632.9 mg
